Several values for one entry are separate records, joined by “and”; a condition that tells them apart may be missing. Identical values can stand only once.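 Results reflect a 48-hour exposure of cells in 96-well plates to compound at five concentrations. GI50 is the concentration that inhibits growth by half. Definition used: TGI = concentration required for complete inhibition of growth.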

Assay in all cases: NCI tumour cell line growth inhibition, 48 h
The subject of assay [1] is DU-145 prostate.
In assay [2] the test system is HS 578T breast.
Assay [3] deals with MCF7 breast.
Assay [4] concerns MDA-MB-231 breast.
Assay [5] has as its system T-47D breast.

Take `COc1ccc(C(=O)c2ccc([As]=O)cc2)cc1` (stereo not drawn): the GI50 in assay [1] is 0.0735 µM; in assay [2] it was 0.149 µM; in assay [3], 0.0212 µM; in assay [4] it was 0.087 µM; in assay [5], 0.0288 µM. Moreover, the TGI in assay [1] was determined as 0.198 µM; in assay [2] it was 0.586 µM; in assay [3], 0.136 µM; in assay [4], 0.242 µM; in assay [5], 0.204 µM.

On to `CCN(C(=O)/C=C/c1ccco1)c1ccccc1`, for which the TGI in assay [1], in assay [2], in assay [3], in assay [4] and in assay [5] was more than 100 µM each time.

Take `CN(C)CCNC(=O)Cn1ccc(=O)c2c([N+](=O)[O-])cccc21`: the TGI in assay [1], in assay [2], in assay [3], in assay [4] and in assay [5] was more than 100 µM throughout.

Consider `CCNC(=O)c1noc(-c2cc(C(C)C)c(O)cc2O)c1-c1ccc(CN2CCOCC2)cc1`, for which the GI50 is less than 0.0222 µM in assay [1]; 2.47 µM in assay [2]; less than 0.0194 µM in assay [3]; 0.0747 µM in assay [4]; 0.0382 µM in assay [5]. In addition, the TGI in assay [1] was 21.1 µM; in assay [2] it was 56.9 µM; in assay [3] it was more than 55 µM; in assay [4] it was 15.7 µM; in assay [5] it was 47.8 µM.

On to `C=C1C[C@@H]2CC[C@@]34C[C@H]5O[C@H]6[C@@H](O3)[C@H]3O[C@H](CC[C@@H]3O[C@H]6[C@@H]5O4)CC(=O)C[C@@H]3[C@@H](OC)[C@@H](C[C@H](O)CN)O[C@H]3C[C@H]3O[C@@H](CC[C@@H]1O2)C[C@@H](C)C3=C`, for which the GI50 in assay [1], in assay [2], in assay [3] and in assay [4] was less than 0.01 µM throughout. Further, the TGI is more than 100 µM in assay [1], more than 100 µM in assay [2], more than 100 µM in assay [3] and more than 53.5 µM in assay [4].

Take `O=c1c(F)cn(Cc2ccccc2CCl)c(=O)n1Cc1ccccc1CCl`: the GI50 in assay [1] is 1.79 µM; in assay [2], 1.92 µM; in assay [3] it was 1.16 µM; in assay [4], 1.93 µM; in assay [5] it was 1.57 µM. The TGI in assay [1] amounted to 3.42 µM; in assay [2], 6.93 µM; in assay [3], 6.11 µM; in assay [4], 4.92 µM; in assay [5], 4.11 µM.

For the compound `C=C1C(=O)O[C@H]2[C@H]1CC/C(COC(=O)NCC(C)c1ccc(CC(C)C)cc1)=C\CC[C@@]1(C)O[C@@H]21` (stereo partly drawn), the GI50 is 2.93 µM in assay [1]; 1.53 µM in assay [2]; 0.902 µM in assay [3]; 0.612 µM in assay [4]; 2.2 µM in assay [5]. The TGI in assay [1] is 6.95 µM; in assay [2], 15 µM; in assay [3] it was 4.18 µM; in assay [4], 1.27 µM; in assay [5], 7.83 µM.

As for `Nc1ccc(/C=C/C(=O)NCc2cc3cc(-c4ccc(C(=O)N5CCC(F)(F)CC5)cc4)cc(-c4ccc(F)cc4)c3o2)cn1`, the GI50 in assay [1] was 4.15 µM; in assay [2] it was more than 100 µM; in assay [3], 14.4 µM; in assay [4] it was 15.1 µM; in assay [5] it was 0.784 µM. In addition, the TGI in assay [1], in assay [2], in assay [3], in assay [4] and in assay [5] was more than 100 µM each time.

In the case of `CC(=O)/C(=C/c1ccccc1F)C(=O)c1ccccc1`, the TGI was more than 100 µM in assay [1]; more than 100 µM in assay [2]; more than 100 µM in assay [3]; 92.5 µM in assay [4]; more than 100 µM in assay [5].

For the compound `O=C(N/N=C/c1ccccc1O)c1ccccc1`, the GI50 in assay [1] was 3.27 µM; in assay [2], 27.1 µM; in assay [3], 2.86 µM; in assay [4], 5.11 µM; in assay [5] it was 0.457 µM. Besides, the TGI in assay [1], in assay [2], in assay [3], in assay [4] and in assay [5] was more than 100 µM in each case.

`Cc1cc(I)cc(CN(C)CCCN2CCCC2)c1O`: the GI50 is 31.4 µM in assay [1]; 13.6 µM in assay [2]; 12.8 µM in assay [3]; 18.6 µM in assay [4]; 19 µM in assay [5]. For the same compound, the TGI in assay [1] was more than 100 µM; in assay [2], 33.8 µM; in assay [3], 29.5 µM; in assay [4] it was 49.9 µM; in assay [5] it was 57.2 µM.

`COC(=O)C(/C(=N\O)C(=O)Nc1cccc(Cl)c1C)c1cnc2ccccc2n1` (stereo not drawn): the TGI in assay [1], in assay [3], in assay [4] and in assay [5] was more than 100 µM in each case.

For `O=C(O)c1ccccc1/C=N/N=C1c2ccccc2-c2ccccc21`, the TGI was more than 100 µM in assay [1]; 34.7 µM in assay [2]; more than 100 µM in assay [3]; more than 100 µM in assay [4]; more than 100 µM in assay [5].

For `CCCCCCCCCCCCCCCC[N+]1(C)CCOCC1`, the GI50 was 2.41 µM in assay [1]; 2.23 µM in assay [2]; 2.72 µM in assay [3]; 1.39 µM in assay [4]; 4.68 µM in assay [5]. The TGI is 6.79 µM in assay [1]; 8.44 µM in assay [2]; 13.2 µM in assay [3]; 3.94 µM in assay [4]; 25.2 µM in assay [5].

Consider `Oc1ccccc1-c1nn(CNc2ccccc2Cl)c(=S)o1`, for which the GI50 in assay [2] was more than 100 µM; in assay [3] it was 40 µM; in assay [4], more than 100 µM; in assay [5], 13.5 µM. Further, the TGI in assay [2] was more than 100 µM; in assay [3], more than 100 µM; in assay [4], more than 100 µM; in assay [5] it was 74.9 µM.

Consider `CCC1=CC2CN(C1)Cc1c([nH]c3ccccc13)[C@@](C(=O)OC)(c1cc3c(cc1OC)N(C)[C@H]1[C@@](O)(C(=O)OC)[C@H](OC(C)=O)[C@]4(CC)C=CCN5CC[C@]31[C@@H]54)C2` (stereo partly drawn), for which the GI50 in assay [2] was 0.00827 µM and 0.0277 µM; in assay [3], less than 0.005 µM; in assay [4], 0.0182 µM and 0.0211 µM; in assay [5], 0.00507 µM. Besides, the TGI in assay [2] was 19.8 µM and 45.7 µM; in assay [3], 50 µM and > 100 µM; in assay [4], 5.74 µM and 0.873 µM; in assay [5], 50 µM.

These data come from PubChem BioAssay (NCI).
